Values of other authors, collected in publication PMC9877316, “Identification of a novel P2X7 antagonist using structure-based virtual screening” (Frontiers in Pharmacology, 2023).

Experiments:
Parameters in all cases: method as in Villoutreix et al., 2011
mast cell degranulation = conditions: ref Villoutreix et al., 2011; read-out: IC50 for inhibiting mast cell degranulation; cited from earlier work
tyrosine kinase Syk [1] = conditions: ref Villoutreix et al., 2011; cited from earlier work
tyrosine kinase Syk [2] = conditions: antibody displacement assay; ref Villoutreix et al., 2011; cited from earlier work

CCOC(=O)C1=C(C)NC2=C(C(=O)c3ccccc32)C1c1cc(Br)ccc1OCC(=O)O (stereo not drawn) [Chembridge ID 6422575, (4-bromo-2-[3-(ethoxycarbonyl)-2-methyl-5-oxo-4,5-dihydro-1H-indeno[1,2-b]pyridin-4-yl]phenoxy) acetic acid]
IC50 (mast cell degranulation): ≥ 20 µM | Kd (tyrosine kinase Syk [1]): 6.2 µM | inhibition of antibody binding (tyrosine kinase Syk [2]): 81%
